The target of experiment [1] is T1, Prostaglandin D2 receptor 2 (Homo sapiens, UniProt Q9Y5Y4).
T1 sequence (Q9Y5Y4 whole entry): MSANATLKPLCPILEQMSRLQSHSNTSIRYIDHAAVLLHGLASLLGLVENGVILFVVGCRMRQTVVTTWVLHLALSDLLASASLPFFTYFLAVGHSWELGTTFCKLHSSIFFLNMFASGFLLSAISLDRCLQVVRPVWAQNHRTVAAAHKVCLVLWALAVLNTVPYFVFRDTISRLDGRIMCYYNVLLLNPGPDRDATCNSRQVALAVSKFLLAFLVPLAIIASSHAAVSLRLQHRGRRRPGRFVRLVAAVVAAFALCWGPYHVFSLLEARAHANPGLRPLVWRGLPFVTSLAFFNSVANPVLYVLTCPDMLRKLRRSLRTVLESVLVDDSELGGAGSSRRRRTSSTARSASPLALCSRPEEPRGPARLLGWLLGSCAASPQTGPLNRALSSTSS
Briefly: Binding affinity to human prostaglandin D2 receptor by cell based radioligand displacement assay.

A further experiment has as its target T2, Thromboxane A2 receptor (Homo sapiens, UniProt P21731).
T2 sequence (P21731 whole entry): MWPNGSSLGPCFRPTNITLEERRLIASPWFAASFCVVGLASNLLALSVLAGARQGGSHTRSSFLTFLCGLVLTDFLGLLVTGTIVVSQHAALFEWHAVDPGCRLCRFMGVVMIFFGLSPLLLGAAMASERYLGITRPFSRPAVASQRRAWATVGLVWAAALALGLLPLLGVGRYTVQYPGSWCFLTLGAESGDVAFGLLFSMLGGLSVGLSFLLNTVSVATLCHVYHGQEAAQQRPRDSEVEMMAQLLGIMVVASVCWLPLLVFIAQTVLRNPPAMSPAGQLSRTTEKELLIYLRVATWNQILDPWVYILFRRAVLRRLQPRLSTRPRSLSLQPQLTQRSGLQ
Briefly: Binding affinity to human thromboxane A2 receptor by radioligand displacement assay. In general terms: In a radioligand displacement assay an active substance lowers the binding of a labelled ligand.

Experiment [2] deals with T3, Prostaglandin D2 receptor (Homo sapiens) (UniProt Q13258).
T3 sequence (whole entry): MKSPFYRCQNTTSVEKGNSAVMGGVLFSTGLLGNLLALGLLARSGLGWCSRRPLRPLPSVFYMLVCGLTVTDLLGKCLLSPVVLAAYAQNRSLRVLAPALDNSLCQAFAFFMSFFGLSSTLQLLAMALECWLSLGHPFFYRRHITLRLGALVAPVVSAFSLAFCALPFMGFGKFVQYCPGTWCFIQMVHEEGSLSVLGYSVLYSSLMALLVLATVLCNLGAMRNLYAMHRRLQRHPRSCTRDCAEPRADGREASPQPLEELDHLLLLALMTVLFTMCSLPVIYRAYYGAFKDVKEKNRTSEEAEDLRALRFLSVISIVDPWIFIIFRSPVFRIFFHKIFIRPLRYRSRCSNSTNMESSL
Briefly: Binding affinity to human prostaglandin D1 receptor at 10 uM by radioligand displacement assay.

For experiment [3], the target named is T4, Thromboxane A2 receptor (Homo sapiens) (UniProt P21731).
T4 sequence (whole entry): T2 sequence (P21731 whole entry)
In words: Binding affinity to human thromboxane A2 receptor at 10 uM by radioligand displacement assay.

Experiment [4] has as its target T1, Prostaglandin D2 receptor 2. Briefly: Antagonist activity at human prostaglandin D2 receptor assessed as inhibition of PGD2-induced receptor activation by cell based FLIPR assay. It counts as functional.

From ChEMBL document CHEMBL1155509, “3-Indolyl sultams as selective CRTh2 antagonists” (Bioorg Med Chem Lett, 2010) come the findings set out here.

The Ki is a dissociation constant, usually derived from enzyme kinetics or from competition with a known ligand. Usually inhibition stands for how much of the control response was suppressed. Low readings indicate little suppression, high ones strong suppression.

The structures appear in SMILES notation.

Molecule `CN1C(c2cn(CC(=O)O)c3ccccc23)c2ccccc2S1(=O)=O` (racemic) had a Ki in experiment [1] of 8100 nM.

The molecule `Cc1noc(C)c1CN1C(C)(c2c(C)n(CC(=O)O)c3ccccc23)c2ccccc2S1(=O)=O` (racemic) returned a Ki in experiment [1] of 38 nM. Still for that read-out and setting: for `Cc1c(C2NS(=O)(=O)c3ccccc32)c2cc(Cl)ccc2n1CC(=O)O` (racemic) the value was 690 nM; for `Cc1ccc2c(c1)c(C1NS(=O)(=O)c3ccccc31)c(C)n2CC(=O)O` (racemic), 1500 nM; for `O=C(O)Cn1cc(C2NS(=O)(=O)c3ccccc32)c2cc(Cl)ccc21` (racemic), 2900 nM. Same read-out and setting: then `Cc1c(C2c3ccccc3S(=O)(=O)N2CCC(C)C)c2ccccc2n1CC(=O)O` (racemic), with 560 nM; and `O=C(O)Cn1cc(C2c3ccccc3S(=O)(=O)N2CCc2ccccc2)c2ccccc21` (racemic), with 630 nM.

Consider `O=C(O)Cn1cc(C2NS(=O)(=O)c3ccccc32)c2ccccc21` (racemic), for which the Ki in experiment [1] was found to be 9200 nM.

Turning to `Cc1c(C2c3ccccc3S(=O)(=O)N2CCOc2ccc(Cl)cc2)c2ccccc2n1CC(=O)O` (racemic), the Ki on Thromboxane A2 receptor turned out to be 3.4 µM; in experiment [1] it was 35 nM. Further, the inhibition in experiment [2] is 28%. `Cc1c(C2NS(=O)(=O)c3ccccc32)c2ccccc2n1CC(=O)O` (racemic) showed a Ki in experiment [1] of 2800 nM. The molecule `Cc1ccc2c(c1)c(C1NS(=O)(=O)c3ccccc31)cn2CC(=O)O` (racemic) showed a Ki in experiment [1] of 2900 nM. The molecule `Cc1noc(-c2ccccc2)c1CN1C(c2c(C)n(CC(=O)O)c3ccccc23)c2ccccc2S1(=O)=O` (racemic) returned a Ki in experiment [1] of 13 nM. Turning to `Cc1c(C2c3ccccc3S(=O)(=O)N2CCOc2ccccc2)c2ccccc2n1CC(=O)O` (racemic), the Ki at Thromboxane A2 receptor is 7.8 µM; in experiment [1], 29 nM. The molecule also came in with an inhibition in experiment [2] of 0%. Molecule `Cc1noc(C)c1CN1C(c2c(C)n(CC(=O)O)c3ccccc23)CCS1(=O)=O` (racemic) showed a Ki in experiment [1] of 23 nM. `O=C(O)Cn1cc(C2c3ccccc3S(=O)(=O)N2Cc2ccccc2)c2ccccc21` (racemic) displayed a Ki in experiment [1] of 1100 nM. Still for that read-out and setting: then `N#Cc1ccc2c(c1)c(C1NS(=O)(=O)c3ccccc31)cn2CC(=O)O` (racemic), with 2000 nM; and `Cc1c(C2c3ccccc3S(=O)(=O)N2c2ccccc2)c2ccccc2n1CC(=O)O` (racemic), with 480 nM. With `Cc1noc(C)c1CN1C(c2c(C)n(CC(=O)O)c3ccccc23)c2ccccc2S1(=O)=O` (racemic), the values for the Ki in experiment [1] and in experiment [4] were 12 nM and 28 nM, respectively. The inhibition in experiment [2] and in experiment [3] was 0% each time. As to `Cc1c(C2NS(=O)(=O)c3ccccc32)c2cc(F)ccc2n1CC(=O)O` (racemic), the affinity in experiment [1] corresponds to a Ki of 430 nM. Still for that read-out and setting: then `Cc1c(C2c3ccccc3S(=O)(=O)N2CCc2ccccc2)c2ccccc2n1CC(=O)O` (racemic), with 220 nM; and `Cc1c(C2c3ccccc3S(=O)(=O)N2CCO)c2ccccc2n1CC(=O)O` (racemic), with 1400 nM. `Cc1noc(C)c1CN1C(c2c(C)n(CC(=O)O)c3ccc(Cl)cc23)c2ccccc2S1(=O)=O` (racemic) returned a Ki in experiment [1] of 8 nM. Also, the values for the inhibition in experiment [2] and in experiment [3] were 15% and 0%, respectively. `Cc1c(C2c3ccccc3S(=O)(=O)N2C(C)C)c2ccccc2n1CC(=O)O` (racemic) displayed an inhibition constant (Ki) in experiment [1] of 920 nM. Still for that read-out and setting: then `CC(C)CCN1C(c2cn(CC(=O)O)c3ccccc23)c2ccccc2S1(=O)=O` (racemic), with 2300 nM; and `Cc1c(C2c3ccccc3S(=O)(=O)N2CCCOc2ccccc2)c2ccccc2n1CC(=O)O` (racemic), with 1400 nM. In experiment [1], `Cc1noc(C)c1CN1C(c2cn(CC(=O)O)c3ccccc23)c2ccccc2S1(=O)=O` (racemic) displayed a Ki of 18 nM.
